Reference: PMC11642044 (International Journal of Molecular Sciences, 2024)
Where no end group is shown, it is not given here.

Assays:
primary astrocytes = assay: Intracellular Ca2+ mobilization by Gq-coupled receptor agonists (FLIPR, Fluo-4), primary cortical astrocytes; assay type: cell-based, mouse; settings: n = 4
Description: HEK293, U87-MG, 1321N1, SK-N-SH, and SK-N-MC cells were cultured in MEM supplemented with 10% (vol/vol) fetal bovine serum (FBS), 50 U/mL penicillin, and 50 μg/mL streptomycin. Primary astrocyte cultures were prepared from the cerebral cortexes of neonatal mice (P2). The cerebral hemispheres were isolated and transferred to ice-cold Hank’s buffer, and the meninges were carefully removed. Tissues were then minced into approximately 1 mm pieces, triturated, filtered through a 60 µm nylon screen, and collected by centrifugation at approximately 3000× g for 5 min. The cell pellets were dispersed with a pipette and resuspended in a medium containing 10% (vol/vol) FBS in low-glucose Dulbecco’s modified Eagle’s medium. After trituration, the cells were filtered through a 10 µm screen and then plated into 6-well plates at a density of 3 × 10^5 cells/mL and cultured for about 10 days. The medium was replaced twice per week. Dibutyryl cyclic adenosine monophosphate (DBcAMP; 0.15 mM, Sigma, St Louis, MO, USA) was added to induce differentiation when the cells were grown to 95% confluence. Primary mouse cortical neuronal cultures were obtained from E16 ICR mouse embryos. Briefly, cerebral cortices were removed from mouse embryos and mechanically dissociated in PBS with glucose (18 mM). Neurons were then seeded onto poly-L-lysine (1 mg/mL)-coated 96-well plates at 5 × 10^4 cells/well in a B27 Plus Neuronal culture system (Thermo Fisher Scientific), supplemented with 2 mM glutamine, 5 μM mercaptoethanol, 100 U/mL penicillin and 100 μg/mL streptomycin. The cultured neurons were maintained in a humidified incubator at 37 °C with 5% CO2 for 7 days prior to use.
(§1) Cells were seeded in 96-well plates (clear bottom and black wall) at 2.5 × 10^4 cells per well on the day before assay. The cells (~80–100% confluence) were then washed with Hank’s balanced salt solution (HBSS) and aspirated, followed by addition of 100 μL of FLIPR labeling dye (containing Fluo-4 and probenecid in HBSS) to each well before incubation at 37 °C for 1 h. Finally, the 96-well plate containing the labeled cells was transferred to the FLIPR (Molecular Devices, San Jose, CA, USA), and 50 μL of HBSS (with or without agonists) was added to each well. The fluorescent signals that reflect the intracellular Ca^2+ transients were monitored by an excitation wavelength of 488 nm, and detection was undertaken with an emission wavelength from 510 to 570 nm for 3 min upon the drug treatments, as described previously.

U87-MG cells = assay: Intracellular Ca2+ mobilization by Gq-coupled receptor agonists (FLIPR, Fluo-4), U87-MG; assay type: cell-based, human; settings: U87-MG, FLIPR, Fluo-4, 3 min, n = 3
Description: as §1

1321-N1 cells = assay: Intracellular Ca2+ mobilization by Gq-coupled receptor agonists (FLIPR, Fluo-4), 1321-N1; assay type: cell-based, human; settings: 1321-N1, FLIPR, Fluo-4, 3 min, n = 3
Description: as §1

[1] = tested on: B2R-mediated LIF secretion in U87-MG cells; assay: Inhibition of bradykinin-induced LIF production (ELISA), U87-MG; assay type: cell-based, human; settings: 10 μM inhibitor, 30 min pre-treatment, bradykinin 1 µM, 24 h
Description: Conditioned media were analyzed for the presence of multiple cytokines by using the cytokine multiplex assay kits (Merck Millipore, MA, USA) as previously described. Briefly, a bead mixture with various capture antibodies (50 μL) was added to a 96-well microtiter plate, followed by 50 μL of cytokine standard mix or test sample and then 25 μL of a biotinylated detection antibody mixture. The mixtures were incubated for 30 min at 25 °C with gentle shaking. Unbound antibodies were removed by three gentle washes. Finally, 50 μL of streptavidin–PE solution was added and incubated for another 30 min with gentle shaking. The detection beads were then washed again and resuspended in 120 μL of reading buffer. The Bio-Plex™ 200 system (Bio-Rad Laboratories, Hercules, CA, USA) with the Bio-Plex manager software (version 5.0) was utilized for signal detection and data analysis. Curve fitting was applied to each standard curve according to the manufacturer’s manual and sample concentrations were interpolated from the standard curves. Individual detections for LIF and IL-6 were performed using the corresponding ELISA kits from Abcam (Cambridge, UK) according to the manufacturer’s instructions.
The resulting Ca^2+ signal profiles were monitored by FLIPR for 3 min.

[2] = tested on: melatonin MT1 receptor with Gα16; assay type: cell-based, human
Description: Supplementary Methods (for Supplementary Figures) […]
(Merck Millipore, MA, USA). HEK293 cells (80-100% confluence in 6-well plates) stably expressing MT1R alone or together with Gα16 as described previously [Ref. 21] were treated with 1 μM of melatonin (Tocris Bioscience, Minneapolis, MN) in 1 mL of MEM per well without FBS for 24 h. The resulting conditioned media were collected in 1.5 mL microcentrifuge tubes, with the presence of secretory LIF and IL-6 quantified by ELISA assays (Abcam, Cambridge, UK) according to the manufacturer’s […]

STAT3 in SK-N-MC cells = assay: STAT3 Tyr705 phosphorylation in SK-N-MC by conditioned media from agonist-treated U87-MG; assay type: cell-based, human; settings: U87-MG treated with bombesin 1 μM, bradykinin 1 μM or histamine 10 μM, 24 h; media on SK-N-MC 15 min
Description: These conditioned media were either immediately applied to SK-N-SH/SK-N-MC cells (80–100% confluence) in 6-well plates for 15 min, or subjected to heat treatment on a 96 °C heat block for 5 min, and then cooled to 37 °C before they were applied to the SK-N-SH/SK-N-MC cells for 15 min. […] For the SK-N-MC-derived conditioned media, SK-N-MC cells (80–100% confluence) in a 10 cm culture dish were serum-starved in 10 mL of MEM (without FBS), with 1 mL of the resulting conditioned medium being collected at indicated time points (15 min, 1 h, 3 h, 6 h). Simultaneously, U87-MG cells (80–100% confluence) in 12-well plates were serum-starved in MEM for 6 h, followed by pretreatment of […] (5 μM, 15 min), and then challenged with the SK-N-MC-derived conditioned media (mentioned above) for 10 min before cell lysis. […]
SDS-PAGE and Western blotting were performed as described in our previous studies. […] The amount of protein in each sample was determined by detergent compatible (DC) protein assay according to the supplier’s instruction (Bio-Rad, Hercules, CA, USA). […] Resolved proteins were detected by specific primary antibodies and horseradish peroxidase-conjugated secondary antisera. The level of β-actin was determined as an internal control.

[3] = tested on: STAT3 in primary mouse astrocytes; assay: STAT3 phosphorylation by direct application of cytokine, primary astrocytes; assay type: cell-based; settings: 0–100 ng/mL, 15 min, n = 3
Description: To determine if the experimental cells were readily responsive to LIF and IL-6, SK-N-MC cells, mouse primary neurons and primary astrocytes (80–100% confluence in 12-well plates) were serum-starved for 6 h, followed by treatment of indicated concentrations (0–100 ng/mL) of LIF and IL-6 for 15 min. The subsequent cell lysates were subjected to SDS-PAGE and Western blot with specific antibodies to detect stimulatory phosphorylated forms and the total amounts of STAT3.
SDS-PAGE and Western blotting were performed as described in our previous studies. In brief, cells in 6-well plates (5 × 10^5 cells/well) were lysed in 500 μL of ice-cold lysis buffer (50 mM Tris-HCl at pH 7.5 containing 100 mM NaCl, 5 mM EDTA, 40 mM NaP2O7, 1% Triton X-100, 1 mM dithiothreitol, 200 μM Na3VO4, 100 μM phenylmethylsulfonyl fluoride, 2 μg/mL leupeptin, 4 μg/mL aprotinin, and 0.7 μg/mL pepstatin) and then gently shaken for 30 min. The amount of protein in each sample was determined by detergent compatible (DC) protein assay according to the supplier’s instruction (Bio-Rad, Hercules, CA, USA). Clarified lysates (30 μg protein per sample) were resolved on 12% SDS-polyacrylamide gels and then transferred to nitrocellulose membranes (Westborough, MA, USA). Resolved proteins were detected by specific primary antibodies and horseradish peroxidase-conjugated secondary antisera. The level of β-actin was determined as an internal control. Immunoblots were visualized by chemiluminescence with the WesternBright ECL reagents from Advansta (San Jose, CA, USA). Chemiluminescence signals were then detected by ChemiDoc imaging systems (Bio-Rad, Hercules, CA, USA) with the subsequent band densities quantified by ImageJ (https://imagej.net/ij/) analysis software (National Institutes of Health, MD, USA). All primary antibodies which specifically recognize B1R, B2R, ERK, p-ERK, p38, p-p38, JNK, p-JNK, STAT3, p-STAT3, and β-actin were applied at 1:1000 dilution for Western blotting.

`Nc1ncnc2c1ncn2[C@@H]1O[C@H](COP(=O)(O)OP(=O)(O)OP(=O)(O)O)[C@@H](O)[C@H]1O` [ATP] was tested, and the “intracellular Ca2+ mobilization” value (primary astrocytes; 1 μM agonist) was “significantly stimulated Ca^2+ mobilization”, the “intracellular Ca2+ response” value (U87-MG cells; 1 μM agonist) was “effective in U87-MG cells” and the “intracellular Ca2+ response” value (1321-N1 cells; 1 μM agonist) was “did not respond to ATP for triggering Ca^2+ transients”.
In the case of `Cn1c2ccccc2c2c3c(c4c5ccccc5n(CCC#N)c4c21)CNC3=O` [Go6976], the “inhibition of bradykinin-induced LIF secretion by protein kinase inhibitors” value (from here on “inhibition”) [1] is reported as “Partial inhibition of LIF secretion”.
For `COc1cccc(-c2cc(=O)c3ccccc3o2)c1N` [PD98059], the “inhibition” value [1] was “found to require”.
For `C[S+]([O-])c1ccc(-c2nc(-c3ccncc3)c(-c3ccc(F)cc3)[nH]2)cc1` (centres unmarked) [SB203580], the “inhibition” value [1] was “found to require”.
In the case of `Oc1c2ccccc2c2c3c(cccc13)N=N2` [SP600125], the “inhibition” value [1] is reported as “partially inhibited bradykinin-induced LIF secretion”.
In the case of `CN(C)S(=O)(=O)c1ccc2c(c1)/C(=C/c1cc3c([nH]1)CCCC3)C(=O)N2` [SU6656], the “inhibition” value [1] is reported as “found to require”.
For `N[C@@H](CCC(=O)O)C(=O)O` [glutamate], the “intracellular Ca2+ mobilization” value (primary astrocytes; 1 μM agonist) was “significantly stimulated Ca^2+ mobilization”.
`COc1ccc2[nH]cc(CCNC(C)=O)c2c1` [melatonin] was tested, and the IL-6 release [2] was “induced the release of both LIF and IL-6” and the LIF release [2] was “induced the release of both LIF and IL-6”.
In the case of `CNC[C@H](O)c1cccc(O)c1` [phenylephrine], the “intracellular Ca2+ mobilization” value (primary astrocytes; 10 μM agonist) is reported as “significantly stimulated Ca^2+ mobilization”.
For `CCCCC[C@H](O)/C=C/[C@H]1[C@H](O)CC(=O)[C@@H]1C/C=C\CCCC(=O)O` [prostaglandin E2], the “intracellular Ca2+ mobilization” value (primary astrocytes; 1 μM agonist) was “significantly stimulated Ca^2+ mobilization”.
For `NCCc1c[nH]c2ccc(O)cc12` [serotonin], the “intracellular Ca2+ response” value (U87-MG cells; 10 μM agonist) was “could not trigger the activity” and the “intracellular Ca2+ response” value (1321-N1 cells; 10 μM agonist) was “could not trigger the activity”.
`CCCCCCCCCCCCC/C=C/[C@@H](O)[C@@H](N)COP(=O)(O)O` [sphingosine-1-phosphate] was tested, and the “intracellular Ca2+ mobilization” value (primary astrocytes; 1 μM agonist) was “significantly stimulated Ca^2+ mobilization”, the “intracellular Ca2+ response” value (U87-MG cells; 1 μM agonist) was “significantly stimulated intracellular Ca^2+ responses” and the “intracellular Ca2+ response” value (1321-N1 cells; 1 μM agonist) was “significantly stimulated intracellular Ca^2+ responses”.
“angiotensin II (DRVYIHPF; Angiotensin-2; UniProt P01019 25-32, looked up)” was tested, and the “intracellular Ca2+ response” value (U87-MG cells; 1 μM agonist) was “effective in U87-MG cells”.
bombesin was tested, and the “intracellular Ca2+ mobilization” value (primary astrocytes; 1 μM agonist) was “significantly stimulated Ca^2+ mobilization”, the “intracellular Ca2+ response” value (U87-MG cells; 1 μM agonist) was “significantly stimulated intracellular Ca^2+ responses” and the “intracellular Ca2+ response” value (1321-N1 cells; 1 μM agonist) was “significantly stimulated intracellular Ca^2+ responses”. For the same compound, the “STAT3 Tyr705 phosphorylation by conditioned media” value (STAT3 in SK-N-MC cells) was “sometimes failed to induce STAT3 phosphorylation”.
For endothelin, the “intracellular Ca2+ mobilization” value (primary astrocytes; 100 nM agonist) was “significantly stimulated Ca^2+ mobilization” and the “intracellular Ca2+ response” value (1321-N1 cells; 100 nM agonist) was “elicited Ca^2+ responses in 1321-N1 cells”.
With interleukin-6 [IL-6] the STAT3 phosphorylation [3] was “significant stimulatory phosphorylation of STAT3”.
For neurokinin B, the “intracellular Ca2+ mobilization” value (primary astrocytes; 1 μM agonist) was “significantly stimulated Ca^2+ mobilization”.
For “neuromedin U25 (FRVDEEFQSPFASQSRGYFLFRPRN; ends and bridges not checked; UniProt P48645 142-166, looked up)”, the “intracellular Ca2+ response” value (U87-MG cells; 1 μM agonist) was “effective in U87-MG cells”.
In the case of neurotensin, the “intracellular Ca2+ response” value (U87-MG cells; 1 μM agonist) is reported as “could not trigger the activity” and the “intracellular Ca2+ response” value (1321-N1 cells; 1 μM agonist) is reported as “could not trigger the activity”.
In the case of oxytocin, the “intracellular Ca2+ mobilization” value (primary astrocytes; 1 μM agonist) is reported as “significantly stimulated Ca^2+ mobilization” and the “intracellular Ca2+ response” value (U87-MG cells; 1 μM agonist) is reported as “effective in U87-MG cells”.
